The target in the first data set is human recombinant cytochrome P450 3A4 (Homo sapiens (Human), UniProt P08684). In words: CYP3A4 inhibition, Biological Test Example 6.
Chain of human recombinant cytochrome P450 3A4 (P08684 whole entry): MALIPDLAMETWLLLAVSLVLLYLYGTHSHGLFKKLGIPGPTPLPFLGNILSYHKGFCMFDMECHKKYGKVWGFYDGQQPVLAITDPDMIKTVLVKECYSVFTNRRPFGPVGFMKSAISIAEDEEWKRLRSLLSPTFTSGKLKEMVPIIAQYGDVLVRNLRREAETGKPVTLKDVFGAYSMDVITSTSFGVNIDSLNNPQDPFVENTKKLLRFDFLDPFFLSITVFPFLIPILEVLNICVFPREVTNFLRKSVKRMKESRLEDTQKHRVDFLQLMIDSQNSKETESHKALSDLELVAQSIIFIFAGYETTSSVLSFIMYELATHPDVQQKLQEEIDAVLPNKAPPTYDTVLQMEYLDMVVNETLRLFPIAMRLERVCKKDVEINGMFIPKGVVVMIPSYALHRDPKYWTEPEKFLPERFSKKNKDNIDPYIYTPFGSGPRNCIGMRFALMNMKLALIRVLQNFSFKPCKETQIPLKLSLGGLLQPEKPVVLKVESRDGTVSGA
Conditions: not given
It counts as in vitro ADME.
Chain of human recombinant cytochrome P450 2C19 (P33261 whole entry): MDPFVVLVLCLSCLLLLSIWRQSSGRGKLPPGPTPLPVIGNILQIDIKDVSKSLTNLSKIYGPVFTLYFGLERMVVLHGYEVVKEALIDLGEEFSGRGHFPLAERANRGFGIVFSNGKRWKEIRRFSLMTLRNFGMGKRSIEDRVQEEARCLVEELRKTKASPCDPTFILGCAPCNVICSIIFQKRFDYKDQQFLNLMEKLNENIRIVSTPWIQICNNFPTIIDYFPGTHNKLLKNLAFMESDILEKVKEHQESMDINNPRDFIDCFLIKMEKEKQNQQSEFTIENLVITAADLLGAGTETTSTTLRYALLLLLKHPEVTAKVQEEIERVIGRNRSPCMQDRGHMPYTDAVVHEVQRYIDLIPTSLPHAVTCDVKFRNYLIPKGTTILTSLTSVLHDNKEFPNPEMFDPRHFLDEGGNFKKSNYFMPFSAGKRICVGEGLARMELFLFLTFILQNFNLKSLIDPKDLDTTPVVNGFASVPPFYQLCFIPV
As for `C[C@@H](c1ccc(-c2ccc(=O)n(C)c2)cc1)N1CC[C@](CCCO)(c2ccccc2)OC1=O` [Example 30, (R)-6-(3-hydroxypropyl)-3-((S)-1-(4-(1-methyl-6-oxo-1,6-dihydropyridin-3-yl)phenyl)ethyl)-6-phenyl-1,3-oxazinan-2-one], the IC50 is over 50 µM. With `Cc1cc(-c2ccc([C@H](C)N3CC[C@](CC(C)(C)O)(c4ccccc4)OC3=O)cc2)cn(C)c1=O` [Example 61, (S)-3-((S)-1-(4-(1,5-dimethyl-6-oxo-1,6-dihydropyridin-3-yl)phenyl)ethyl)-6-(2-hydroxy-2-methylpropyl)-6-phenyl-1,3-oxazinan-2-one], the IC50 was over 50 µM. The same measure, in the same setting: in the case of `C[C@@H](c1ccc(-c2ccn(C3CC3)c(=O)c2)cc1)N1CC[C@](CC(C)(C)O)(c2ccccc2F)OC1=O` [Example 88, (S)-3-((S)-1-(4-(1-cyclopropyl-2-oxo-1,2-dihydropyridin-4-yl)phenyl)ethyl)-6-(2-fluorophenyl)-6-(2-hydroxy-2-methylpropyl)-1,3-oxazinan-2-one] it was over 50 µM; in that of `CC[C@@H](c1ccc(-c2ccc(=O)n(C)c2)cc1)N1CC[C@](CCO)(c2ccccc2)OC1=O` [Example 40, (S)-6-(2-hydroxyethyl)-3-((S)-1-(4-(1-methyl-6-oxo-1,6-dihydropyridin-3-yl)phenyl)propyl)-6-phenyl-1,3-oxazinan-2-one], over 50 µM; in that of `Cc1cc(-c2ccc([C@H](C)N3CC[C@](CC(C)(C)O)(c4ccccc4)OC3=O)cc2)cc(=O)n1C` [Example 64, (S)-3-((S)-1-(4-(1,6-dimethyl-2-oxo-1,2-dihydropyridin-4-yl)phenyl)ethyl)-6-(2-hydroxy-2-methylpropyl)-6-phenyl-1,3-oxazinan-2-one], over 50 µM. On to `CC(C)n1cc(-c2ccc([C@H](C)N3CC[C@](CC(C)(C)O)(c4ccccc4)OC3=O)cc2)ccc1=O` [Example 59, (S)-6-(2-hydroxy-2-methylpropyl)-3-((S)-1-(4-(1-isopropyl-6-oxo-1,6-dihydropyridin-3-yl)phenyl)ethyl)-6-phenyl-1,3-oxazinan-2-one], for which the IC50 is over 50 µM.

The target in the next data set is human recombinant cytochrome P450 2C9 (Homo sapiens (Human), UniProt P11712). The data set is described as follows: CYP2C9 inhibition ([O-methyl-14C]-Naproxen), Biological Test Example 7. It counts as in vitro ADME.
Chain of human recombinant cytochrome P450 2C9 (P11712 whole entry): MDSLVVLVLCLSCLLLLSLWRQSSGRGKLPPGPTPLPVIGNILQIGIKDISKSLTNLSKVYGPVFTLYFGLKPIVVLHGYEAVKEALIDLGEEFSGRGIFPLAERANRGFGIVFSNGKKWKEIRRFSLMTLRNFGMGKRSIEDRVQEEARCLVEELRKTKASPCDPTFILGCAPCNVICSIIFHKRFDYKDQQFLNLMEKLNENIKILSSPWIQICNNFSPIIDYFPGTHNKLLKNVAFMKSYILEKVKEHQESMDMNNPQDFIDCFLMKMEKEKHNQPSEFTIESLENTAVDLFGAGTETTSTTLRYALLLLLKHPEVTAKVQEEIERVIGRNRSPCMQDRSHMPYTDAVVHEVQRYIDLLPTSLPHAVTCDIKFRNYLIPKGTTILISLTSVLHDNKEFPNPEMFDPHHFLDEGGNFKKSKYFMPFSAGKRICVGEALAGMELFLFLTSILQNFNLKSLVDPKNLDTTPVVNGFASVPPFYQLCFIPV
Conditions: not given
With `CCn1cc(-c2ccc([C@H](C)N3CC[C@](CC(C)(C)O)(c4ccc(F)cc4)OC3=O)cc2)ccc1=O` [Example 62, (S)-3-((S)-1-(4-(1-ethyl-6-oxo-1,6-dihydropyridin-3-yl)phenyl)ethyl)-6-(4-fluorophenyl)-6-(2-hydroxy-2-methylpropyl)-1,3-oxazinan-2-one], the IC50 is over 50 µM.

Take `CC[C@@H](c1ccc(-c2ccc(=O)n(C)c2)cc1)N1CC[C@](CCO)(c2ccccc2)OC1=O` [Example 40, (S)-6-(2-hydroxyethyl)-3-((S)-1-(4-(1-methyl-6-oxo-1,6-dihydropyridin-3-yl)phenyl)propyl)-6-phenyl-1,3-oxazinan-2-one]: the IC50 was over 50 µM. With `CCn1cc(-c2ccc([C@H](C)N3CC[C@](CC(C)(C)O)(c4ccccc4)OC3=O)cc2)cc(C)c1=O` [Example 70, (S)-3-((S)-1-(4-(1-ethyl-5-methyl-6-oxo-1,6-dihydropyridin-3-yl)phenyl)ethyl)-6-(2-hydroxy-2-methylpropyl)-6-phenyl-1,3-oxazinan-2-one], the IC50 was over 50 µM.

A further data set concerns the target human recombinant cytochrome P450 2C19 (Homo sapiens (Human), UniProt P33261). In words: CYP2C19 inhibition, Biological Test Example 8. Particulars: read-out: Biological Test Example 8 CYP2C19, IC50. In kind it is in vitro ADME.
With `C[C@@H](c1ccc(-c2ccc(=O)n(C)c2)cc1)N1CC[C@](CC(C)(C)C#N)(c2ccc(F)cc2)OC1=O` [Example 69, 3-((R)-6-(4-fluorophenyl)-3-((S)-1-(4-(1-methyl-6-oxo-1,6-dihydropyridin-3-yl)phenyl)ethyl)-2-oxo-1,3-oxazinan-6-yl)-2,2-dimethylpropanenitrile], the IC50 is over 50 µM.

With `C[C@@H](c1ccc(-c2ccn(C3CC3)c(=O)c2)cc1)N1CC[C@](CC(C)(C)O)(c2ccccc2F)OC1=O` [Example 88, (S)-3-((S)-1-(4-(1-cyclopropyl-2-oxo-1,2-dihydropyridin-4-yl)phenyl)ethyl)-6-(2-fluorophenyl)-6-(2-hydroxy-2-methylpropyl)-1,3-oxazinan-2-one], the IC50 was over 50 µM.

The same data set, now with this note: read-out: Biological Test Example 8 CYP2C19, IC50; human recombinant CYP2C19, [N-methyl-14C]-Diazepam.
Regarding `C[C@@H](c1ccc(-c2ccn(C(F)F)c(=O)c2)cc1)N1CC[C@](CC(C)(C)O)(c2ccccc2)OC1=O` [Example 5, (S)-3-((S)-1-(4-(1-(difluoromethyl)-2-oxo-1,2-dihydropyridin-4-yl)phenyl)ethyl)-6-(2-hydroxy-2-methylpropyl)-6-phenyl-1,3-oxazinan-2-one], the IC50 stood at […].
